Results: patent publication US20170298060A1, “PYRROLOPYRIDINE RETINOIC ACID RECEPTOR-RELATED ORPHAN RECEPTOR MODULATORS AND USES THEREOF” (INNOV17 LLC, priority 2016, published 2017)

Key:
IL-17A = assay: Human TH17 cytokine inhibition as measured by ELISA (IL-17A); assay type: cell-based; conditions: 72 h; human CD4+ T cells under TH17-polarizing conditions, 3 days, supernatant ELISA, 0.1% DMSO
Protocol: (§1) Human TH17 Cytokine Inhibition as Measured by ELISA
(§2) Peripheral blood mononuclear cells (PBMCs) were sourced from freshly prepared leukocyte enriched plasma (buffy coat) from healthy donors (New York Blood Center). PBMCs were isolated by density gradient centrifugation using Ficoll-Paque™ PLUS (GE Healthcare). Human CD4+ T cells were seeded into 96-well plates (5×10^4 cells/well) and activated with plate-bound anti-human (h)-CD3 antibody and soluble h-aCD28 (both at 1 ug/ml; eBioscience) and differentiated into TH17 cells with 20 ng/mL h-IL-6, 5 ng/mL h-TGF-β1, 10 ng/mL h-IL-23 (eBioscience) and 10 ng/mL IL-1β (Miltenyi Biotec) in serum-free TexMACS Medium (Miltenyi Biotec) supplemented with 1% Penicillin/Streptomycin (Lonza) for 3 days. CD4+ T cells propagated under TH17-polarizing conditions were cultured in the presence or absence of various concentrations of compounds with a final concentration of 0.1% DMSO. Supernatants were collected and stored at −20° C. until assayed for IL-17A and IL-17F levels by “Ready-Set-Go” ELISA kits (eBioscience) as per manufacturer's instructions. Endpoint absorbance was read at 450 nm using a microplate reader (Perkin Elmer).

IL-17F = assay: Human TH17 cytokine inhibition as measured by ELISA (IL-17F); assay type: cell-based; conditions: 72 h; human CD4+ T cells under TH17-polarizing conditions, 3 days, supernatant ELISA, 0.1% DMSO
Protocol: as §1, §2

Structure (SMILES)	IC50 (IL-17A) [µM]	IC50 (IL-17F) [µM]
CC(C)CC(=O)N1CCC(Cn2ccc3cc(-c4cn[nH]c4)cnc32)CC1 [Example 11, 1-(4-((5-(1H-pyrazol-4-yl)-1H-pyrrolo[2,3-b]pyridin-1-yl)methyl)piperidin-1-yl)-3-methylbutan-1-one]	< 10	< 10
O=C(c1ccccc1)N1CCC(Cn2ccc3cc(-c4cn[nH]c4)ncc32)CC1 [Example 1, (4-((5-(1H-pyrazol-4-yl)-1H-pyrrolo[2,3-c]pyridin-1-yl)methyl)piperidin-1-yl)(phenyl)methanone]	< 10	< 10
O=C(c1ccccc1F)N1CCC(Cn2ccc3cc(-c4cn[nH]c4)ncc32)CC1 [Example 4, (4-((5-(1H-pyrazol-4-yl)-1H-pyrrolo[2,3-c]pyridin-1-yl)methyl)piperidin-1-yl)(2-fluorophenyl)methanone]	< 10	< 10
CC(C)CS(=O)(=O)N1CCC(Cn2ccc3cc(-c4cn[nH]c4)ncc32)CC1 [Example 6, 1-((1-(isobutylsulfonyl)piperidin-4-yl)methyl)-5-(1H-pyrazol-4-yl)-1H-pyrrolo[2,3-c]pyridine]	< 10	< 10
O=S(=O)(c1ccccc1)N1CCC(Cn2ccc3cc(-c4cn[nH]c4)cnc32)CC1 [Example 15, 1-((1-(phenylsulfonyl)piperidin-4-yl)methyl)-5-(1H-pyrazol-4-yl)-1H-pyrrolo[2,3-b]pyridine]	< 10	< 10
O=S(=O)(CCc1ccccc1)N1CCC(Cn2ccc3cc(-c4cn[nH]c4)ncc32)CC1 [Example 5, 1-((1-(phenethylsulfonyl)piperidin-4-yl)methyl)-5-(1H-pyrazol-4-yl)-1H-pyrrolo[2,3-c]pyridine]	< 10	< 10
O=C(c1ccccc1)N1CCC(Cn2ccc3cc(-c4cn[nH]c4)cnc32)CC1 [Example 9, (4-((5-(1H-pyrazol-4-yl)-1H-pyrrolo[2,3-b]pyridin-1-yl)methyl)piperidin-1-yl)(phenyl)methanone]	< 10	< 10
O=C(c1ccccc1F)N1CCC(Cn2ccc3cc(-c4cn[nH]c4)cnc32)CC1 [Example 12, (4-((5-(1H-pyrazol-4-yl)-1H-pyrrolo[2,3-b]pyridin-1-yl)methyl)piperidin-1-yl)(2-fluorophenyl)methanone]	< 10	< 10
O=S(=O)(c1ccccc1F)N1CCC(Cn2ccc3cc(-c4cn[nH]c4)ncc32)CC1 [Example 8, 1-((1-((2-fluorophenyl)sulfonyl)piperidin-4-yl)methyl)-5-(1H-pyrazol-4-yl)-1H-pyrrolo[2,3-c]pyridine]	< 10	< 10
CC(C)CS(=O)(=O)N1CCC(Cn2ccc3cc(-c4cn[nH]c4)cnc32)CC1 [Example 14, 1-((1-(isobutylsulfonyl)piperidin-4-yl)methyl)-5-(1H-pyrazol-4-yl)-1H-pyrrolo[2,3-b]pyridine]	< 10	< 10
O=S(=O)(c1ccccc1F)N1CCC(Cn2ccc3cc(-c4cn[nH]c4)cnc32)CC1 [Example 16, 1-((1-((2-fluorophenyl)sulfonyl)piperidin-4-yl)methyl)-5-(1H-pyrazol-4-yl)-1H-pyrrolo[2,3-b]pyridine]	< 10	< 10
O=C(CCc1ccccc1)N1CCC(Cn2ccc3cc(-c4cn[nH]c4)cnc32)CC1 [Example 10, 1-(4-((5-(1H-pyrazol-4-yl)-1H-pyrrolo[2,3-b]pyridin-1-yl)methyl)piperidin-1-yl)-3-phenylpropan-1-one]	< 10	< 10
O=S(=O)(c1ccccc1)N1CCC(Cn2ccc3cc(-c4cn[nH]c4)ncc32)CC1 [Example 7, 1-((1-(phenylsulfonyl)piperidin-4-yl)methyl)-5-(1H-pyrazol-4-yl)-1H-pyrrolo[2,3-c]pyridine]	< 10	< 10
O=S(=O)(CCc1ccccc1)N1CCC(Cn2ccc3cc(-c4cn[nH]c4)cnc32)CC1 [Example 13, 1-((1-(phenethylsulfonyl)piperidin-4-yl)methyl)-5-(1H-pyrazol-4-yl)-1H-pyrrolo[2,3-b]pyridine]	< 10	< 10
CC(C)CC(=O)N1CCC(Cn2ccc3cc(-c4cn[nH]c4)ncc32)CC1 [Example 3]	< 10	< 10
